Assay results: EP0036572A1, “Substituted alkylthioacylamino acids, processes for their preparation and pharmaceutical compositions” (C.H. BOEHRINGER SOHN, priority 1980, dated 1981)

Tests used:
[1] = tested on: genetischen Hochdruckratte; details: genetische Hochdruckratte; 30 mg/kg p.o.
[2] = tested on: durch Bradykinin erzeugte Blutdrucksenkung; details: Ratten; 3,0 µ g/kg Bradykinin i.v.; test substance 1,38juMol/kg i.v.

## C[C@H](CSC(C[N+](=O)[O-])c1ccccc1)C(=O)N1CCC[C@H]1C(=O)O (stereo partly drawn) [Beispiel 1, 1-[3-(1-Phenyl-2-nitro-äthylthio)-2-D-methylpropanoyl]-L-prolin]
[1]
  Blutdrucksenkung: 19%
[2]
  durch Bradykinin verursachte Blutdrucksenkung verstärkt um: 142%
